From PubChem BioAssay (NCI)
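Cultured in 96-well plates, cells were exposed to test compound for 48 hours across five concentrations. GI50: concentration for 50% inhibition of growth. TGI marks complete inhibition of growth.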

How the values were obtained:
Assay in all cases: NCI anticancer screen, dose series, 48 h
[1] = test system: NCI-H522 lung
[2] = test system: IGROV1 ovarian
[3] = test system: EKVX NSCLC
[4] = test system: NCI-H226 lung
[5] = test system: 786-0 renal
[6] = test system: SK-OV-3 ovarian
[7] = test system: HOP-62 NSCLC
[8] = test system: M14 melanoma
[9] = test system: CAKI-1 renal
[10] = test system: SR leukemia

Row | SMILES | TGI [1] | TGI [2] | TGI [3] | TGI [4] | TGI [5] | TGI [6] | TGI [7] | TGI [8] | TGI [9] | GI50 [3] | GI50 [4] | GI50 [5] | GI50 [7] | GI50 [9] | GI50 [1] | GI50 [2] | GI50 [6] | GI50 [8] | GI50 [10] [µM] | TGI [10] [µM]
1 | NCC(Cc1ccccc1)P(=O)(O)O (stereo unspecified) | > 100 µM | > 100 µM | > 100 µM | > 100 µM | > 100 µM | > 100 µM | > 100 µM | > 100 µM | > 100 µM |  |  |  |  |  |  |  |  |  |  | 
2 | CCOC(=O)C1=CSC2=NC3=C(CCC/C3=C\c3cc(OC)c(OC)c(OC)c3)C(c3cc(OC)c(OC)c(OC)c3)N12 (stereo unspecified) |  |  | > 100 µM | > 100 µM | > 100 µM |  | > 100 µM |  | > 100 µM | > 100 µM | 2.4 µM | > 100 µM | 1.43 µM | 6.77 µM |  |  |  |  |  | 
3 | CC(=O)c1c(O)c2c([nH]c1=O)CCCC2 |  | > 100 µM | > 100 µM |  | > 100 µM | 48.5 µM | 46.5 µM | > 100 µM | > 100 µM |  |  |  |  |  |  |  |  |  |  | 
4 | C=C(C)[C@@H]1CC[C@]2(C(=O)n3ccnc3)CC[C@]3(C)[C@H](CC[C@@H]4[C@@]5(C)CCCNC(C)(C)[C@@H]5CC[C@]43C)[C@@H]12 | 3.71 µM | 3.27 µM | 4.1 µM | 4.8 µM | 2.96 µM | 16.2 µM | 3.31 µM | 3.1 µM |  | 1.74 µM | 2.23 µM | 1.45 µM | 1.75 µM |  | 1.91 µM | 1.58 µM | 3.72 µM | 1.6 µM |  | 
5 | O=C(CCC(=O)C1Cc2ccccc2C1=O)Nc1cccc(C(F)(F)F)c1 (stereo unspecified) |  | > 100 µM | > 100 µM | > 100 µM | > 100 µM | > 100 µM | > 100 µM | > 100 µM | > 100 µM |  |  |  |  |  |  |  |  |  |  | 
6 | C/C(CC(=O)Nc1cccc(Cl)c1C)=N\N=C(N)N | > 100 µM | > 100 µM | > 100 µM | > 100 µM | > 100 µM | > 100 µM | > 100 µM | > 100 µM | > 100 µM |  |  |  |  |  |  |  |  |  |  | 
7 | O=C(Nc1ccc(Cl)c(Cl)c1)C1C(=O)N(c2ccc(Cl)c(Cl)c2)C(=O)/C1=N\O (stereo unspecified) | > 100 µM | > 100 µM | > 100 µM | > 100 µM | > 100 µM | > 100 µM | > 100 µM | 53.8 µM | > 100 µM |  |  |  |  |  |  |  |  |  |  | 
8 | CN1CCOCCOCCOc2ccccc2NC(=O)c2nc(cnc2N)-c2ccc(cc2)S1(=O)=O | > 100 µM | > 100 µM | > 100 µM | > 100 µM | 23.3 µM | > 100 µM | 46.2 µM |  |  | 60.2 µM | 59.9 µM | 0.0398 µM | 14.7 µM |  | 5.55 µM | 0.0719 µM | 7.12 µM |  |  | 
9 | COc1cc2c3c(n(CCCN4CCSCC4)c(=O)c2cc1OC)-c1cc2c(cc1C3=O)OCO2 | 65.4 µM | 86.2 µM | > 100 µM | > 100 µM | 75.5 µM | > 100 µM | 73.7 µM | > 100 µM | > 100 µM | > 100 µM | 59.9 µM | 25.2 µM | 26.2 µM | 21.1 µM | 19.9 µM | 28.8 µM | 88.1 µM | > 100 µM |  | 
10 | Cc1cn2c(/C=C3/C(=O)Nc4ccc(C(=O)O)cc43)c(C)nc2s1 | > 100 µM | > 100 µM | > 100 µM | > 100 µM | > 100 µM | > 100 µM | > 100 µM | > 100 µM | > 100 µM | > 100 µM | > 100 µM | > 100 µM | > 100 µM | > 100 µM | > 100 µM | > 100 µM | > 100 µM | > 100 µM |  | 
11 | NNC(=O)N/N=C1\CNC(=O)C(=O)C1c1nc2ccccc2s1 (stereo unspecified) | > 100 µM | > 100 µM | > 100 µM | > 100 µM | > 100 µM | > 100 µM | > 100 µM | > 100 µM | > 100 µM |  |  |  |  |  |  |  |  |  |  | 
12 | COc1ncc2cc1NS(=O)(=O)c1cccc(c1)C(=O)NCC1=CC=C(S1)c1ncnc3c1SC2=C3C | 2.61 µM | 1.6 µM | 2.54 µM | 2.6 µM | 2.74 µM | 4.07 µM | 4.1 µM | 1.89 µM | 10.3 µM | 0.234 µM | 0.47 µM | 0.31 µM | 0.238 µM | 0.0795 µM | 0.467 µM | 0.0715 µM | 0.378 µM | 0.0992 µM |  | 
13 | COc1ccc2c3c(c(C(=O)O)oc13)C(CCC(=O)O)CC2 (stereo unspecified) |  | > 100 µM | > 100 µM |  | > 100 µM | > 100 µM | > 100 µM | > 100 µM | > 100 µM |  |  |  |  |  |  |  |  |  |  | 
14 | Nc1c(-c2nc3ccccc3s2)[n+]([O-])c2ccccc2[n+]1[O-] | 45.8 µM | > 100 µM | > 100 µM | > 100 µM | > 100 µM | 88.9 µM | 78.5 µM | 74.2 µM | 81.8 µM |  |  |  |  |  |  |  |  |  |  | 
15 | NC(=O)C(=O)Cc1nc2ccccc2s1 | > 100 µM |  | > 100 µM | > 100 µM | > 100 µM | > 100 µM | > 100 µM | > 100 µM |  |  |  |  |  |  |  |  |  |  |  | 
16 | c1ccc2c(c1)[O][Sn][O]2 | 8.78 µg/mL | > 150 µg/mL | > 150 µg/mL | > 150 µg/mL | > 150 µg/mL | > 150 µg/mL | > 150 µg/mL | > 150 µg/mL | > 150 µg/mL | > 150 µg/mL | 69.5 µg/mL | 23.6 µg/mL | 36.1 µg/mL | 30.2 µg/mL | 2.03 µg/mL | 24.3 µg/mL | > 150 µg/mL | 57.3 µg/mL |  | 
17 | CC1(C)OC2OC(COC(=O)C(c3ccccc3)c3ccccc3)C3OC(C)(C)OC3C2O1 (stereo unspecified) | > 100 µM | > 100 µM | > 100 µM | > 100 µM | > 100 µM | > 100 µM | > 100 µM | > 100 µM | > 100 µM | > 100 µM | > 100 µM |  | > 100 µM | > 100 µM |  | > 100 µM | > 100 µM |  |  | 
18 | C1CCN2CC3CONC3C2C1 (stereo unspecified) | > 100 µM | > 100 µM | > 100 µM | > 100 µM | > 100 µM |  | > 100 µM | > 100 µM | > 100 µM |  |  |  |  |  |  |  |  |  |  | 
19 | O=c1[nH]c(=O)n(C2CC(O)C(O)C(CO)O2)cc1F (stereo unspecified) | > 100 µM | > 100 µM | > 100 µM | > 100 µM | > 100 µM | > 100 µM | > 100 µM | > 100 µM |  |  |  |  |  |  |  |  |  |  |  | 
20 | O=C1c2ccccc2-c2c1c1ccc([N+](=O)[O-])cc1c(=O)n2CCCCl | > 100 µM | > 100 µM | > 100 µM |  | > 100 µM | > 100 µM | > 100 µM | > 100 µM | > 100 µM | > 100 µM |  | > 100 µM | 43.8 µM | 2.45 µM | 86.8 µM | > 100 µM | 63.4 µM | 47 µM |  | 
21 | CC(C)=CC(=O)CC(=O)C(=O)NCCNC(=O)C(=O)CC(=O)C=C(C)C |  | > 50 µM | > 50 µM | > 50 µM | > 50 µM | > 50 µM | > 50 µM | > 50 µM | > 50 µM |  |  |  |  |  |  |  |  |  |  | 
22 | O=C(Nc1ccc(Br)cc1)Nc1cccc(Br)c1 |  | > 100 µM |  | > 100 µM | > 100 µM | > 100 µM | > 100 µM | > 100 µM | > 100 µM |  | 47.1 µM | 34.5 µM | 7.24 µM | > 100 µM |  | 5.82 µM | 39.4 µM | 9.96 µM | 11.6 | > 100
23 | O=C(CN(/C=C/C(=O)C(F)(F)F)c1ccccc1)c1ccc(F)cc1 | 46.5 µM | 79.2 µM | > 100 µM | 47.8 µM | > 100 µM | > 100 µM | > 100 µM |  | 48.9 µM | 49.9 µM | 19.6 µM | 41.1 µM | 75.1 µM | 19.8 µM | 19.2 µM | 21.9 µM | 55 µM |  |  | 
24 | Cc1cc(OC(=O)c2c(C)cc(OC(=O)c3c(C)cc(O)cc3O)cc2O)cc(O)c1C(=O)O | > 100 µM | > 100 µM | > 100 µM |  | > 100 µM | > 100 µM | > 100 µM | > 100 µM | > 100 µM |  |  |  |  |  |  |  |  |  |  | 
25 | OC1CSCCSCCCSCCSC1 | > 100 µM | > 100 µM | > 100 µM | > 100 µM | > 100 µM | > 100 µM | > 100 µM | > 100 µM | > 100 µM |  |  |  |  |  |  |  |  |  |  | 
26 | CCN(CC)CCCNc1c2ccc(Cl)cc2nc2ccc(OC)cc12 |  |  |  | 4.88 µM | 2.15 µM |  |  |  |  |  | 1.84 µM | 0.0449 µM |  |  |  |  |  |  | 0.029 | 3.67
27 | CCOC(=O)COc1cccc2occc(=O)c12 | > 100 µM | > 100 µM | > 100 µM |  | > 100 µM | > 100 µM | > 100 µM | > 100 µM | > 100 µM |  |  |  |  |  |  |  |  |  |  | 
28 | C=CC(C)(O)CCC1C(=C)C(O)CC2C(C)(C)CCCC12C (stereo unspecified) | 34.1 µM | 52.2 µM | 36.8 µM | 29.2 µM | 32.8 µM | > 100 µM | 43.6 µM | 30 µM | 68.2 µM |  |  |  |  |  |  |  |  |  |  | 
29 | Cc1ccc(NC2=CC(=O)C(=O)c3ccccc32)c(C)c1 | 5.87 µM | 6.68 µM | 24.3 µM | 12.2 µM | 20.8 µM | 27.9 µM | 12.5 µM | 3.26 µM | 7.95 µM | 10.3 µM | 2.85 µM | 8.44 µM | 3.24 µM | 2 µM | 1.52 µM | 1.88 µM | 13.8 µM | 1.78 µM |  | 
